Entries after “also recorded” stand apart in the source; their conditions may differ. Read-outs that look alike come from different tables or passages of the source.
Assays:
WT TIGR4 S. pneumoniae [1] = test: Growth curves in ThyB with copper sulfate and compound; conditions: for copper-dependent toxicity (CDT) / growth defect in growth curve: compound plus copper sulfate
ΔcopA mutant strain = test: Growth curves in ThyB with copper sulfate and compound, copper exporter deficient mutant; type: cell-based, Streptococcus pneumoniae; conditions: compound plus copper
Excerpt: Final solution was set to pH 6.6.

S. aureus = conditions: cited from earlier work
[2] = cited from earlier work
TIGR4 S. pneumoniae [3] = conditions: GFAAS
[4] = test system: Methicillin-resistant Staphylococcus aureus (MRSA); conditions: topical cream containing 50 mg DMDC twice daily
Coccidioides posadasii = conditions: inhaler with 50 mg DMDC twice a day for a week
TIGR4 S. pneumoniae [5] = conditions: ICP-OES
WT TIGR4 S. pneumoniae [6] = conditions: M17
WT TIGR4 S. pneumoniae [7] = test: Killing curves in THYB
WT TIGR4 S. pneumoniae [8] = conditions: RPMI
Streptococcus pyogenes = conditions: inhaler with 25 mg DMDC twice a day for two weeks
Streptococcus pneumoniae = conditions: 150 mg DMDC orally once a day for a week
[9] = test system: WT TIGR4 bacteria co-cultured with activated J774A.1 macrophages; test: Macrophage killing assay, TIGR4 co-cultured with J774A.1 macrophages; type: cell-based, murine; conditions: macrophages with 100 μM inhibitor; bacteria treated with 250 μM Cu2+ + 16 μM DMDC
M. tuberculosis = conditions: cited from earlier work
Schistosoma mansoni = conditions: newly transformed and lung stage schistosomula; cited from earlier work

Question: Which results are given for O.c1cnc2c(c1)ccc1cccnc12 [1,10-phenalthroline monohydrate]?
Answer: copper-dependent toxicity (CDT) / growth defect in growth curve (WT TIGR4 S. pneumoniae [1]; WT TIGR4): no effect on wild type; CDT / growth defect in growth curve, ΔcopA (ΔcopA mutant strain): an effect

Question: Which “copper-dependent toxicity (CDT) / growth defect in growth curve” value (WT TIGR4 S. pneumoniae [1]; WT TIGR4) does the source give for Oc1cccc2cccnc12 [8HQ, 8-hydroxyquinoline] here?
Answer: Its value is “no 8HQ mediated CDT; also recorded: do not cause a significant growth defect”.

Question: And the “CDT against S. aureus” value (S. aureus)?
Answer: The value was “have CDT”.

Question: What about the “CDT / growth defect in growth curve, ΔcopA” value (ΔcopA mutant strain) of the same compound?
Answer: The value was “susceptible; also recorded: does cause a growth defect”.

Question: What about the toxicity in mammals ([2]; mammals) of the same compound?
Answer: The toxicity in mammals was “inherent toxicity”.

Question: Which “CDT at much higher / high concentrations” value (WT TIGR4 S. pneumoniae [1]; with copper) does the source give for CCN(CC)C(=S)S [DETDC, N,N-diethyldithiocarbamate] here?
Answer: The value was “no effect”.

Question: What does the source list for CN(C)C(=S)[S][Na] [DMDC]?
Answer: increase of intracellular copper compared to the copper treated samples (TIGR4 S. pneumoniae [3]; 250 μM Cu2+ + 16 μM DMDC): 7 fold; increase of intracellular copper compared to the copper treated samples (TIGR4 S. pneumoniae [3]; 250 μM Cu2+ + 32 μM DMDC): 10 fold; side effects [4]: No side effects; side effects (Coccidioides posadasii): No side effects; increase of intracellular copper compared to the untreated control (TIGR4 S. pneumoniae [5]; 250 μM Cu2+ + 16 μM DMDC): 65 fold; increase of intracellular copper compared to the untreated control (TIGR4 S. pneumoniae [5]; 250 μM Cu2+ + 32 μM DMDC): 67 fold; time required for killing (WT TIGR4 S. pneumoniae [6]): 1 to 2 h; kill of wild-type Streptococcus pneumoniae (WT TIGR4 S. pneumoniae [7]; low micromolar DMDC complexed with copper, in 2 hours): up to 99.9%; time required for killing (WT TIGR4 S. pneumoniae [8]): 3 to 4 h; side effects (Streptococcus pyogenes): No side effects; side effects (Streptococcus pneumoniae): No side effects; toxicity of chronic use ([2]; chronic use): harm the liver and lead to higher rates of some carcinomas; toxicity of high doses ([2]; high doses): neurological problems

Question: For N=C(N)NOCC[C@H](N)C(=O)O [L-canavanine], which “recovered bacteria with macrophage inhibitor treatment” value [9] is on record?
Answer: The value was “no statistically significant improvement”.

Question: With CC1(C)C2CC3OB(c4cccc5cccnc45)OC3(C)C1C2 (stereo not drawn) [QBP, quinoline boronic acid pinanediol ester] as the compound, how does the “copper-dependent toxicity (CDT) / growth defect in growth curve” value (WT TIGR4 S. pneumoniae [1]; WT TIGR4) read?
Answer: The value was “no CDT; also recorded: do not cause a significant growth defect”.

Question: And the “CDT / growth defect in growth curve, ΔcopA” value (ΔcopA mutant strain)?
Answer: Its value is “susceptible; also recorded: does cause a growth defect”.

Question: What about the “CDT on the ΔcopA mutant as compared to 8HQ” value (ΔcopA mutant strain) of the same compound?
Answer: The value was “did not exhibit as much CDT”.

Question: Which results are given for CCN(CC)C(=S)SSC(=S)N(CC)CC [TETD, tetraethylthiuram disulfide]?
Answer: growth with compound alone (WT TIGR4 S. pneumoniae [1]; TETD alone, no copper): prevented growth; copper-dependent toxicity (CDT) / growth defect in growth curve (WT TIGR4 S. pneumoniae [1]; WT TIGR4): returned growth to wild type levels; copper-dependent toxicity (CDT) / growth defect in growth curve (WT TIGR4 S. pneumoniae [1]; WT TIGR4, listed as disulfiram): not observed; copper dependent toxicity against M. tuberculosis (M. tuberculosis): copper dependent toxicity; bactericidal activity in killing curve (WT TIGR4 S. pneumoniae [7]; compound alone or with copper sulfate): did not show bactericidal activity

Question: Which “concentration showing protective effect vs copper” value (WT TIGR4 S. pneumoniae [1]; 250 uM or 500 uM copper sulfate) does the source give for S=C(S)N1CCN(C(=S)S)CC1 [TLA2, Piperizine bis-dithiocarbamate] here?
Answer: The value was over 32 µM.

Question: For COc1cc(C(C)=O)ccc1O [apocynin], which “recovered bacteria with macrophage inhibitor treatment” value [9] is on record?
Answer: The value was “no statistically significant improvement”.

Question: Which “efficacy of praziquantel in these developmental stages” value (Schistosoma mansoni) does the source give for O=C(C1CCCCC1)N1CC(=O)N2CCc3ccccc3C2C1 (stereo not drawn) [praziquantel] here?
Answer: Its value is “not effective”.

Question: For Cc1ncc(CSSCc2cnc(C)c(O)c2CO)c(CO)c1O.Cl [pyrithoxin dihydrochloride], which “copper-dependent toxicity (CDT) / growth defect in growth curve” value (WT TIGR4 S. pneumoniae [1]; WT TIGR4) is on record?
Answer: Its value is “no effect”.

From US20240173292A1, “COMPOUNDS THAT SYNERGIZE WITH COPPER TO KILL STREPTOCOCCUS PNEUMONIAE” (priority 2021, published 2024)
